Experimental data published in patent publication US6599943B1, “Use of hydroxyguanidines” (WaPharm AB, priority 1996, dated 2003).

Assays:
rat heart cytosol = experiment: Hydroxyguanidine reducing activity of heart cytosol by radioligand binding assay; assay type: biochemical; details: 70 μM guanoxabenz, 1 hr at 25° C.
Procedure: (§1) Assay of hydroxyguanidine reducing activity by radioligand binding. The assay is based on the possibility to measure the affinity of ligands to α2-adrenoceptors by using radioligand binding. In a typical experiment small aliquots of the sample to be measured is added to an assay containing membranes rich in α2-adrenoceptors as well as a suitable concentration of a radioligand capable of binding to α2-adrenoceptors. After the assay mixture has been incubated for a suitable time, to achieve equilibrium, the amount of radioligand bound to the membranes is measured by washing and filtering on GF/C glass fibre filters using methods that are well described in literature, and which are commonly referred to as radioligand binding. The ability of the hydroxyguanidine and its product to inhibit the binding of the radioligand to the α2-adrenoceptor constituted a measure of the hydroxyguanidine/guanidine activity of the reaction mixture. A preferred hydroxyguanidine is one which corresponding guanidine show substantially different affinity compared to the hydroxyguanidine itself. A most preferred example of such a hydroxyguanidine is guanoxabenz.
(§2) In a more more exact version of the assay the “apparent affinity” of the mixture of hydroxyguanidine and guanidine-product is measured by constructing a complete competition curve for each sample to be measured. This is achieved by adding different dilutions of the reaction mixture to the radioligand binding assay. Since the sum of the concentration of the hydroxyguanidine and the guanidine product is known, the “apparent affinity” of the mixture can be calculated from the radioligand binding data using standard procedures for radioligand binding data analysis (Uhlén and Wikberg,1991). For the purpose of the present studies the apparent affinity of the reaction mixture was estimated from competition data by using a radioligand binding analysis computer software package (Wan System AB, Trillvägen 13, S-905 92 Umeå, Sweden). The fraction (q) of guanidine product obtained is then given by: [formula] […]

rat spleen cytosol = experiment: Hydroxyguanidine reducing activity of spleen cytosol by radioligand binding assay; assay type: biochemical; details: 70 μM guanoxabenz, 1 hr at 25° C.
Procedure: as §1, §2

xanthine oxidase = xanthine oxidase (Bos taurus, UniProt P80457); experiment: Inhibition of superoxide radical formation by xanthine oxidase, EPR with DMPO; assay type: biochemical; details: 100 μM guanoxabenz, 100 μM xanthine, 0.04 units/ml xanthine oxidase, 50 μM DMPO
xanthine oxidase, sequence (P80457 whole entry): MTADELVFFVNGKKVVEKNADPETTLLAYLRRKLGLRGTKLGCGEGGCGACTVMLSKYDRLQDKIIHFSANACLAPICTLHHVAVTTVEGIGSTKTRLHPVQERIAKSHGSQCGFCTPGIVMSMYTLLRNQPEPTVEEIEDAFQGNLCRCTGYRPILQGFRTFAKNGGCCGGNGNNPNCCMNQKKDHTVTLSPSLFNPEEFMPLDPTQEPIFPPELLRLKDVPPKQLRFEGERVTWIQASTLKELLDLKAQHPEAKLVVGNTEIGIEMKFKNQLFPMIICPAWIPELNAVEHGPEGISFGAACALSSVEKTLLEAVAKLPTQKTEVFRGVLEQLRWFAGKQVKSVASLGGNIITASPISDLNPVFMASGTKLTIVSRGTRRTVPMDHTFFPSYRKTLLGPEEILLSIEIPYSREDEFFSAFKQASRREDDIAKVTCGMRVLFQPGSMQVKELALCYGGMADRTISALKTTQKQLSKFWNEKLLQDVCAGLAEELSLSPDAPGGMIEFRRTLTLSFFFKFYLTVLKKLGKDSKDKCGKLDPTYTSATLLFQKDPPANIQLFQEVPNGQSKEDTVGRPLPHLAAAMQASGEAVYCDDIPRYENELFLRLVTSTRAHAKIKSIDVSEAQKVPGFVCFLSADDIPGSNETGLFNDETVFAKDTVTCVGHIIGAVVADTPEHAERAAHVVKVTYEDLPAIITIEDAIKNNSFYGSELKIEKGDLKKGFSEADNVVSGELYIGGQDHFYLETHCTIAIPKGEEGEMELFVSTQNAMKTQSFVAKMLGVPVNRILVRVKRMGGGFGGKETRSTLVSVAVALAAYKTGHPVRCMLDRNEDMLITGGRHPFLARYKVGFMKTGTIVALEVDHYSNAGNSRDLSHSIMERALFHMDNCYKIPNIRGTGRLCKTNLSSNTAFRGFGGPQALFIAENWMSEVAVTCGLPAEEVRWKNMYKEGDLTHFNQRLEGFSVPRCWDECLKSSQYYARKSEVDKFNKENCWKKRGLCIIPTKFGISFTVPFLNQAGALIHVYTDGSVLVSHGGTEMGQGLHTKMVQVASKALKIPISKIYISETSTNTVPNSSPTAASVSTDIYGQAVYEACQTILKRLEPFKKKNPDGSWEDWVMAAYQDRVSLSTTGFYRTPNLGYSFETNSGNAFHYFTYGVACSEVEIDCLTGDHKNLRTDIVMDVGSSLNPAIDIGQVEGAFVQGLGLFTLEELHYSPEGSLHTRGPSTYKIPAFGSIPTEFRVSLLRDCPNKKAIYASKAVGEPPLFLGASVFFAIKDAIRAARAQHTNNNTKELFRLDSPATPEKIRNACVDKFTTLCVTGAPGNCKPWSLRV
Procedure: Capacity of hydroxyguanidines to inhibit the formation of superoxide radicals by xanthine oxidase in the presence of oxygen. The detection of the spin adducts of superoxide formed by xanthine oxidase and xanthine reaction was performed by using a Bruker ER200D-SRC EPR spectrometer equipped with an ER4105ST double cavity and the spin trap agent DMPO, by essentially using the approach described by Britigan et al. (1990). In brief, reaction mixtures of total volumes of 0.5 ml were prepared by adding to a plastic tubes, in the listed order, reagents that gave final concentrations as follows: 50 mM Tris HCl, 1.5 mM EDTA, 100 μM xanthine, 100 μM guanoxabenz, 0.04 units/ml xanthine oxidase and 50 μM DMPO, pH 7.5. As a control served an identical reaction mixture except that guanoxabenz had been omitted. The solutions were immediately transferred to standard flat cells for aqueous samples and spectra were recorded at room temperature. Spectrometer settings were as follows: microwave power 3.99 mW; modulation amplitude 1.028 G; time constant 10.24 ms; modulation frequency 100 kHz; receiver gain, 5×10^4. In FIG. 6 is shown an exemplary recording from these tests. […] This additional signal was due to a contaminant corresponding to “nitric oxide” that was released from the disposable laboratory plastic used in the preparation of the samples (see Buettner et al., 1991).

[1] = molecular target: T1, bovine milk xanthine oxidase (Bos taurus, UniProt P80457)
Target sequence in this assay (P80457 2-1332): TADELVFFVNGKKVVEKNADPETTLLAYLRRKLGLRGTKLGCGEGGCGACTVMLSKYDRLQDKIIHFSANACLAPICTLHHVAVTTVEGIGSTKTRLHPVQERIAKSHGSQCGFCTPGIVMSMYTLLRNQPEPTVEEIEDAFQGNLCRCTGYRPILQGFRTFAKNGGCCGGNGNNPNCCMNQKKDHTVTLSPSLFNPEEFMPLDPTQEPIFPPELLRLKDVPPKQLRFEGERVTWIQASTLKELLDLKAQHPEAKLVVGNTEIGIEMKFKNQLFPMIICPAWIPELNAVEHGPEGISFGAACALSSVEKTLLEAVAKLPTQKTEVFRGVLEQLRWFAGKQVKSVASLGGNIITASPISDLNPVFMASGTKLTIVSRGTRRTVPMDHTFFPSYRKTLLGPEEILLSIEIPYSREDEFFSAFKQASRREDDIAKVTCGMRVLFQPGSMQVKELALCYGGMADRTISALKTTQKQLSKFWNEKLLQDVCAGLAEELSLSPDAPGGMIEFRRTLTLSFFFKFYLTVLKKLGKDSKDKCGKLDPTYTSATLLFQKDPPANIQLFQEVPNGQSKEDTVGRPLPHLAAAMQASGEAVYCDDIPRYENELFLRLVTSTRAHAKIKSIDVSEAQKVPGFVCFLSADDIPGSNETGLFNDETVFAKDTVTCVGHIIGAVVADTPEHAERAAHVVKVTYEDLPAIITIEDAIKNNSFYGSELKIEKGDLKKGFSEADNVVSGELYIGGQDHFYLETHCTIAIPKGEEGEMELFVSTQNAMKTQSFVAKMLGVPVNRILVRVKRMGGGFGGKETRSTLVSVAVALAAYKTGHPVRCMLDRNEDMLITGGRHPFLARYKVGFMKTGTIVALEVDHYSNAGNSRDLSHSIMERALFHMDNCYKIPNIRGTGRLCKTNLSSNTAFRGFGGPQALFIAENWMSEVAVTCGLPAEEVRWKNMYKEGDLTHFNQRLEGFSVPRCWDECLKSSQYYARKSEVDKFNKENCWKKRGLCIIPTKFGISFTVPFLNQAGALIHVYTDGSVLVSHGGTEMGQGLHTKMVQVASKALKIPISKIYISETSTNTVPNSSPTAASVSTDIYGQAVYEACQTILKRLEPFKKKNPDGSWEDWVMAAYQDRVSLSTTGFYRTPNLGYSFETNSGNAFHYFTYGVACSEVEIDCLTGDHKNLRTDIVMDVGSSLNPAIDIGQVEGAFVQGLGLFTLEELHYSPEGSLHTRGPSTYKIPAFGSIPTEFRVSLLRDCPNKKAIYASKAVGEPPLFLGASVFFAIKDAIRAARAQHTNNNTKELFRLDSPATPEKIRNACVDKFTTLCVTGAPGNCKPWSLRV
Procedure: Capacity of allopurinol to inhibit the reduction of hydroxyguanidines by xanthine oxidase. […] In these tests varying amounts of guanoxabenz was added to assays yielding 150 μl final volumes and containing final concentrations 0.004 units/ml of bovine milk xanthine oxidase (Sigma, St. Louis, MO., USA), 100 μM xanthine, 20 μM allopurinol, 50 pM α2-adrenoceptors (in HT29 cell membranes), 33 mM Tris HCl, 1 mM EDTA, pH 7.5, and incubating for 1 hour at 25° C.

[2] = molecular target: T1, bovine milk xanthine oxidase; experiment: Capacity to sustain oxidation of xanthine by xanthine oxidase in the absence of oxygen, spectrophotometric; assay type: biochemical; parameters: host or cells: bovine milk; details: 50 μM hydroxyguanidine, 50 μM xanthine, 0.05 units/ml xanthine oxidase, anaerobic, pH 7.5, 20° C., blank subtracted
Procedure: Capacities of a series of hydroxyguanidine to sustain the oxidation of xanthine by xanthine oxidase in the absence of oxygen. The capacities of various hydroxyguanidines to sustain the oxidation of xanthine was assayed by using a spectrophotometric method. In this method bovine milk xanthine oxidase was injected to a Helma® sealable cuvette for anaerobic application thereby creating 1 ml of a reaction mixture that contained reagents as follows: 50 μM of a hydroxyguanidine, 50 μM xanthine, 0.05 units/ml bovine milk xanthine oxidase, 50 mM Tris and 1.5 mM EDTA; the pH of the reaction mixture being 7.5, and the temperature 20° C. Anaerobic conditions were assured by pre-gassing all solutions used for 5-10 min, with nitrogen. The rate of formation of uric acid was monitored spectrophotometrically by measuring the increase in absorbance at 295 nm (the absorption maximum for uric acid) at intervals. The relative capacities of the hydroxyguanidines to sustain oxidation of xanthine were estimated from the derivative of the initial linear phase of the curves. To obtain blank readings an equal volume of the solvent of the hydroxyguanidine (water) was added to the reaction mixture in separate experiments and the initial rate of absorbance change was substracted from the rate readings of the tested hydroxyguanidine.
Exemplary initial rates for the rate of the support of the oxidation of xanthine obtained by assaying the exemplary hydroxyguanidines listed above by the method in the present example are furthermore given in Table 2: […]
Target sequence in this assay (P80457 whole entry): as the sequence (P80457 whole entry) above

## N=C(NO)NN=Cc1c(Cl)cccc1Cl [Guanoxabenz, 2(2,6-dichlorophenyl)methylene-N-hydroxyhydrazine carboxi-imidamide]
Rat heart cytosol
  concentration of guanabenz in the sample: 6.3 µM
  conversion of guanoxabenz to guanabenz: 9%
  q (fraction of guanidine product): 0.09
Rat spleen cytosol
  concentration of guanabenz in the sample: 17.5 µM
  conversion of guanoxabenz to guanabenz: 25%
  q (fraction of guanidine product): 0.25
Xanthine oxidase
  reduction of the superoxide signal (EPR): about 60%
[1]; in the absence of allopurinol
  conversion of guanoxabenz to guanabenz: about 88%
[1]; in the presence of allopurinol (20 μM)
  guanoxabenz converted to guanabenz: none
[2]
  V = 1000 × (Δabs 295 nm) min^−1 (initial rate of the support of the oxidation of xanthine): 40 1000 × (Δabs 295 nm) min^−1
